Measurements published in the supplement of paper PMC10307832.

Tests used:
Assay in all cases: relative viability (nuclei count vs DMSO), 5 days (fraction); higher = more cells survive
COR-L23 = system: COR-L23
Outline: (§1)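 Dosing by pin tool came one day after lung cancer cell lines were seeded in 1536-well plates, using either one drug or a fixed anchor-drug dose plus five library-drug doses (not always all listed) in √10 steps. After 5 days, nuclei were counted on 4× images. Relative viability is treated-well nuclei count divided by vehicle-well nuclei count, and values are medians of duplicate plates.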

ChaGo-K-1 = system: ChaGo-K-1
Outline: as §1

EPLC-272H = system: EPLC-272H
Outline: as §1

H3255 = system: H3255
Outline: as §1

HARA = system: HARA
Outline: as §1

HCC-78 = system: HCC-78
Outline: as §1

HOP-62 = system: HOP-62
Outline: as §1

LCLC-97TM1 = system: LCLC-97TM1
Outline: as §1

LXF-289 = system: LXF-289
Outline: as §1

NCI-H1395 = system: NCI-H1395
Outline: as §1

NCI-H1437 = system: NCI-H1437
Outline: as §1

NCI-H1650 = system: NCI-H1650
Outline: as §1

NCI-H1666 = system: NCI-H1666
Outline: as §1

NCI-H1793 = system: NCI-H1793
Outline: as §1

NCI-H1944 = system: NCI-H1944
Outline: as §1

NCI-H2085 = system: NCI-H2085
Outline: as §1

NCI-H2087 = system: NCI-H2087
Outline: as §1

NCI-H2126 = system: NCI-H2126
Outline: as §1

NCI-H3122 = system: NCI-H3122
Outline: as §1

NCI-H441 = system: NCI-H441
Outline: as §1

NCI-H596 = system: NCI-H596
Outline: as §1

NCI-H661 = system: NCI-H661
Outline: as §1

PC-14 = system: PC-14
Outline: as §1

Cc1cn(-c2cc(NC(=O)c3ccc(C)c(Nc4nccc(-c5cccnc5)n4)c3)cc(C(F)(F)F)c2)cn1 [Nilotinib] + COc1cc2c(Oc3ccc(NC(=O)C4(C(=O)Nc5ccc(F)cc5)CC4)cc3F)ccnc2cc1OCCCN1CCOCC1 [Foretinib] (partner 0.25 µM)
relative viability (COR-L23; first compound 0.001 µM): 0.853 | relative viability (COR-L23; first compound 0.003162 µM): 1.28 | relative viability (COR-L23; first compound 0.01 µM): 1.13 | relative viability (COR-L23; first compound 0.03162 µM): 0.821 | relative viability (COR-L23; first compound 0.1 µM): 0.924 | relative viability (ChaGo-K-1; first compound 0.001 µM): 0.799 | relative viability (ChaGo-K-1; first compound 0.003162 µM): 1.09 | relative viability (ChaGo-K-1; first compound 0.01 µM): 1.03 | relative viability (ChaGo-K-1; first compound 0.03162 µM): 0.582 | relative viability (ChaGo-K-1; first compound 0.1 µM): 0.756 | relative viability (EPLC-272H; first compound 0.001 µM): 0.48 | relative viability (EPLC-272H; first compound 0.003162 µM): 0.658 | relative viability (EPLC-272H; first compound 0.01 µM): 0.688 | relative viability (EPLC-272H; first compound 0.03162 µM): 0.435 | relative viability (EPLC-272H; first compound 0.1 µM): 0.195 | relative viability (H3255; first compound 0.001 µM): 0.943 | relative viability (H3255; first compound 0.003162 µM): 1.06 | relative viability (H3255; first compound 0.03162 µM): 0.845 | relative viability (H3255; first compound 0.1 µM): 0.296 | relative viability (HARA; first compound 0.001 µM): 0.922 | relative viability (HARA; first compound 0.003162 µM): 0.646 | relative viability (HARA; first compound 0.01 µM): 0.817 | relative viability (HARA; first compound 0.03162 µM): 0.811 | relative viability (HARA; first compound 0.1 µM): 0.943 | relative viability (HCC-78; first compound 0.001 µM): 0.636 | relative viability (HCC-78; first compound 0.003162 µM): 0.65 | relative viability (HCC-78; first compound 0.01 µM): 0.719 | relative viability (HCC-78; first compound 0.03162 µM): 0.577 | relative viability (HCC-78; first compound 0.1 µM): 0.59 | relative viability (HOP-62; first compound 0.001 µM): 0.802 | relative viability (HOP-62; first compound 0.003162 µM): 1.16 | relative viability (HOP-62; first compound 0.01 µM): 1.27 | relative viability (HOP-62; first compound 0.03162 µM): 0.831 | relative viability (HOP-62; first compound 0.1 µM): 0.771 | relative viability (LCLC-97TM1; first compound 0.001 µM): 0.902 | relative viability (LCLC-97TM1; first compound 0.003162 µM): 1.05 | relative viability (LCLC-97TM1; first compound 0.01 µM): 0.956 | relative viability (LCLC-97TM1; first compound 0.03162 µM): 0.883 | relative viability (LCLC-97TM1; first compound 0.1 µM): 0.885 | relative viability (LXF-289; first compound 0.001 µM): 0.968 | relative viability (LXF-289; first compound 0.003162 µM): 1.16 | relative viability (LXF-289; first compound 0.03162 µM): 0.893 | relative viability (LXF-289; first compound 0.1 µM): 0.761 | relative viability (NCI-H1395; first compound 0.001 µM): 1.07 | relative viability (NCI-H1395; first compound 0.003162 µM): 0.937 | relative viability (NCI-H1395; first compound 0.01 µM): 0.953 | relative viability (NCI-H1395; first compound 0.03162 µM): 0.853 | relative viability (NCI-H1395; first compound 0.1 µM): 1.02 | relative viability (NCI-H1437; first compound 0.001 µM): 1.2 | relative viability (NCI-H1437; first compound 0.003162 µM): 1.39 | relative viability (NCI-H1437; first compound 0.01 µM): 1.26 | relative viability (NCI-H1437; first compound 0.03162 µM): 1.03 | relative viability (NCI-H1437; first compound 0.1 µM): 1.27 | relative viability (NCI-H1650; first compound 0.001 µM): 1.09 | relative viability (NCI-H1650; first compound 0.003162 µM): 1.2 | relative viability (NCI-H1650; first compound 0.01 µM): 1.3 | relative viability (NCI-H1650; first compound 0.03162 µM): 1.09 | relative viability (NCI-H1650; first compound 0.1 µM): 1.3 | relative viability (NCI-H1666; first compound 0.001 µM): 0.929 | relative viability (NCI-H1666; first compound 0.003162 µM): 0.996 | relative viability (NCI-H1666; first compound 0.03162 µM): 0.911 | relative viability (NCI-H1666; first compound 0.1 µM): 1.07 | relative viability (NCI-H1793; first compound 0.001 µM): 0.768 | relative viability (NCI-H1793; first compound 0.003162 µM): 1.02 | relative viability (NCI-H1793; first compound 0.01 µM): 0.79 | relative viability (NCI-H1793; first compound 0.03162 µM): 0.542 | relative viability (NCI-H1793; first compound 0.1 µM): 0.582 | relative viability (NCI-H1944; first compound 0.001 µM): 0.907 | relative viability (NCI-H1944; first compound 0.003162 µM): 1.05 | relative viability (NCI-H1944; first compound 0.01 µM): 1.06 | relative viability (NCI-H1944; first compound 0.03162 µM): 0.739 | relative viability (NCI-H2085; first compound 0.001 µM): 0.919 | relative viability (NCI-H2085; first compound 0.003162 µM): 1.09 | relative viability (NCI-H2085; first compound 0.01 µM): 1.17 | relative viability (NCI-H2085; first compound 0.03162 µM): 0.84 | relative viability (NCI-H2085; first compound 0.1 µM): 0.801 | relative viability (NCI-H2087; first compound 0.001 µM): 1.03 | relative viability (NCI-H2087; first compound 0.003162 µM): 1.16 | relative viability (NCI-H2087; first compound 0.01 µM): 1.27 | relative viability (NCI-H2087; first compound 0.03162 µM): 0.83 | relative viability (NCI-H2087; first compound 0.1 µM): 0.761 | relative viability (NCI-H2126; first compound 0.001 µM): 1.08 | relative viability (NCI-H2126; first compound 0.003162 µM): 1.41 | relative viability (NCI-H2126; first compound 0.01 µM): 1.26 | relative viability (NCI-H2126; first compound 0.03162 µM): 1.2 | relative viability (NCI-H2126; first compound 0.1 µM): 1.08 | relative viability (NCI-H3122; first compound 0.001 µM): 1.02 | relative viability (NCI-H3122; first compound 0.003162 µM): 1.09 | relative viability (NCI-H3122; first compound 0.01 µM): 1.08 | relative viability (NCI-H3122; first compound 0.03162 µM): 0.929 | relative viability (NCI-H3122; first compound 0.1 µM): 0.68 | relative viability (NCI-H441; first compound 0.001 µM): 0.878 | relative viability (NCI-H441; first compound 0.003162 µM): 1.26 | relative viability (NCI-H441; first compound 0.01 µM): 1.32 | relative viability (NCI-H441; first compound 0.03162 µM): 0.932 | relative viability (NCI-H441; first compound 0.1 µM): 0.805 | relative viability (NCI-H596; first compound 0.001 µM): 0.732 | relative viability (NCI-H596; first compound 0.003162 µM): 0.622 | relative viability (NCI-H596; first compound 0.01 µM): 0.729 | relative viability (NCI-H596; first compound 0.03162 µM): 0.937 | relative viability (NCI-H596; first compound 0.1 µM): 0.601 | relative viability (NCI-H661; first compound 0.001 µM): 1.03 | relative viability (NCI-H661; first compound 0.003162 µM): 1.18 | relative viability (NCI-H661; first compound 0.03162 µM): 0.919 | relative viability (NCI-H661; first compound 0.1 µM): 0.9 | relative viability (PC-14; first compound 0.001 µM): 0.974 | relative viability (PC-14; first compound 0.003162 µM): 1.11 | relative viability (PC-14; first compound 0.01 µM): 1.07 | relative viability (PC-14; first compound 0.03162 µM): 0.845 | relative viability (PC-14; first compound 0.1 µM): 0.928
